Data taken from US9844563B2, “Compositions, kits, and methods to induce acquired cytoresistance using stress protein inducers” (FRED HUTCHINSON CANCER RESEARCH CENTER, priority 2014, dated 2017).
Several values for one entry are separate records, joined by “and”; a condition that tells them apart may be missing. Identical values can stand only once.

Tests used:
HO-1 mRNA = assay: Renal cortical HO-1 mRNA (RT-PCR) after IV myoglobin, SnPP or both; type: in vivo, mice; conditions: 4 hrs post IV injection
From the text: (§1) The Glycerol Model of AKI. This is a widely used model of rhabdomyolysis-induced AKI that has been employed worldwide for 50 years. The model was used to test whether prophylactic interventions confer protection against AKI. Basically, the protocol is as follows: Male CD-1 mice (35-45 grams), obtained from Charles River Laboratories, Wilmington, Mass. were studied. Mice were maintained under standard vivarium conditions and generally housed for 1-3 weeks prior to study. The mice were placed in a cylindrical restraining cage, and then were given a tail vein injection of the test substances (see below) or test substance vehicle. The mice were then returned to their cages. Eighteen hours (hrs) later, the mice were briefly anesthetized by isoflurane inhalation, and given an intramuscular injection of hypertonic (50%) glycerol in a dose of 9 ml/Kg body weight. The dose is divided in two, with half injected into the muscle of each of the hind limbs. The mice were then returned to their cages. Eighteen hrs later, the mice were deeply anesthetized with pentobarbital (50-100 mg/Kg), the abdominal cavity was opened through a midline abdominal incision, a blood sample was obtained from the abdominal vena cava and the kidneys were resected. A kidney cross section was obtained and fixed in formalin for subsequent histologic analysis. The terminal blood samples were analyzed for BUN and creatinine, using commercially available assay kits. The remaining kidney tissue was subjected to cortical dissection, and the cortical tissues were then extracted for protein and RNA. The protein samples were saved for analysis of HO-1 levels, and the RNA samples were subjected to RT-PCR to quantify HO-1 mRNA as well as levels of other stress gene mRNAs (e.g. NGAL, haptoglobin, hemopexin, hepicidin).
(§2) Myoglobin+SnPP: To 5 mg of dry myoglobin was added 0.9 ml of PBS+0.1 ml of a stock SnPP solution (50 umole/ml). The resulting final concentrations were 5 mg/ml myoglobin+5 umoles/ml of SnPP. The tail vein was injected with 200 ul of this solution, which equals 1 mg myoglobin+1 umole SnPP. […]
(§3) Four hr post myoglobin vs myoglobin+SnPP vs SnPP alone experiments. To confirm that the myoglobin+SnPP has a synergistic effect in inducing HO-1 mRNA and HO-1 protein levels, each of the above combinations have been administered alone via tail vein injection. Four hrs later, the mice were sacrificed as noted above and the kidneys were harvested for assessment of HO-1 mRNA and protein levels. For additional information regarding methods, see Zager et al., Am J Physiol Renal Physiol. 2014 Jul. 30. Pii.

HO-1 [1] = assay: Renal cortical HO-1 protein (ELISA) after IV myoglobin, SnPP or both; type: in vivo, mice; conditions: Cortex, 4 hr IV, 1 mg Myoglobin, 1 μmole SnPP
From the text: as §1, §2
as §3, with “Four hrs later, the mice were sacrificed as noted above and the kidneys were harvested for assessment of HO-1 mRNA and protein levels.” left out

HO-1 [2] = assay: Renal cortical HO-1 mRNA (RT-PCR) and protein (ELISA) after N-Mgb, SnPP or both; type: in vivo, mice
Experimental: Thirty-two mice were divided into 4 equal groups: (1) control mice; (2) mice treated with 1 mg of N-Mgb injection (as a bolus through the tail vein); (3) mice treated with […] of SnPP (via tail vein); and (4) mice treated with combined N-Mgb 1 SnPP. After either 4 hours (n=16) or 18 hours (n=16), the mice were deeply anesthetized with pentobarbital (50 mg/kg), the abdomen was opened through a midline abdominal incision, and the kidneys were removed. To determine potential effects on extrarenal organs, a liver lobe and the heart were also removed. The tissues were iced and then extracted for protein and RNA (RNeasy Plus Mini; Qiagen, Valencia, Calif.) and subjected to enzyme linked immunosorbent assay (ELISA) and reverse transcriptase polymerase chain reaction (RT-PCR) for HO-1, haptoglobin, and IL-10 protein and messenger RNAs (mRNAs). Zager et al. J Am Soc Nephrol 2014;25:998-1012; Zager et al. Am J Physiol 2012;303:F139-48. As an assessment of renal function, control mice and the 18 hour after N-Mgb+SnPP—treated mice had blood urea nitrogen (BUN) and plasma creatinine levels measured. Additionally, transverse 10% formalin fixed kidney sections ([…]) were cut and stained with hematoxylin and eosin (H&E) and periodic acid Schiff (PAS) to further assess potential injury.

[3] = Berglund et al. Hepatology 1988; cited from earlier work
[4] = Nath et al., J. Clin. Invest. 1992; cited from earlier work
[5] = Berglund et al.; Kappas et al.; Reddy et al.; cited from earlier work

C=Cc1c2[n-]c(c1C)/C=c1\[n-]/c(c(C)c1C=C)=C\c1[n-]c(c(CCC(=O)O)c1C)C=c1[n-]/c(c(C)c1CCC(=O)O)=C\2.[Sn+4] [SnPP, Sn-protoporphyrin, reference compound]
HO-1 mRNA induction (HO-1/GAPDH mRNA), Average (HO-1 mRNA; average): 6.94 HO-1/GAPDH mRNA | HO-1 mRNA induction (HO-1/GAPDH mRNA), individual mice (HO-1 mRNA; single animals): 9.72 HO-1/GAPDH mRNA and 8.25 HO-1/GAPDH mRNA and 6.95 HO-1/GAPDH mRNA and 2.85 HO-1/GAPDH mRNA | HO-1 Protein Expression (by ELISA), Average (HO-1 [1]; average): 34.4 ng HO-1/mg protein | HO-1 Protein Expression (by ELISA), individual mice (HO-1 [1]; single animals): 32.2 ng HO-1/mg protein and 31.5 ng HO-1/mg protein and 20.5 ng HO-1/mg protein and 53.6 ng HO-1/mg protein | increase in renal HO-1 mRNA (HO-1 [2]; 4 hours after IV injection, vs controls): only modest increases | increase in renal HO-1 protein (HO-1 [2]; 18 hours post-treatment, vs control values): only relatively small HO-1 protein increases | half-life [3]: 2 to 4 h | effect on kidney dysfunction [4]: exacerbated kidney dysfunction | tolerability in humans [5]: well tolerated in humans
